The results in this text go back to US20230277632A1, “MODIFIED PlySs2 LYSINS AND ANTIBIOTIC COMBINATIONS FOR USE AGAINST GRAM-POSITIVE BACTERIA” (ContraFect Corporation, priority 2020, published 2023).

Where two headings read alike, the source gives them in different places.

This experiment concerns MSSA strains. Nature of the experiment: Checkerboard assay: pp296 or CF-301 with oxacillin. The class given is cell-based, Staphylococcus aureus. The following applies: for MIC: Staphylococcus aureus, read-out: Single agent MICs; for FIC / MIC in combination: pp296 + oxacillin; for MIC in combination: unit assumed; for ΣFICmin: with oxacillin. The source says:
In some embodiments, the present modified lysin polypeptides reduce the minimum inhibitory concentration (MIC) of an antibiotic. Any known method to assess MIC may be used. In some embodiments, a checkerboard assay is used to determine the effect of a lysin on antibiotic concentration. The checkerboard assay is based on a modification of the CLSI method for MIC determination by broth microdilution (See Clinical and Laboratory Standards Institute (CLSI), CLSI. 2015. Methods for Dilution Antimicrobial Susceptibility Tests for Bacteria That Grow Aerobically; Approved Standard-10th Edition. Clinical and Laboratory Standards Institute, Wayne, Pa., which is herein incorporated by reference in its entirety and Ceri et al. 1999. J. Clin. Microbiol. 37: 1771-1776, which is also herein incorporated by reference in its entirety).
Checkerboards are constructed by first preparing columns of e.g., a 96-well polypropylene microtiter plate, wherein each well has the same amount of antibiotic diluted 2-fold along the horizontal axis. […] The lysin and antibiotic dilutions are then combined, so that each column has a constant amount of antibiotic and doubling dilutions of lysin, while each row has a constant amount of lysin and doubling dilutions of antibiotic. Each well thus has a unique combination of lysin and antibiotic. Bacteria are added to the drug combinations at a given concentration. […] Summation fractional inhibitory concentrations (ΣFICs) are calculated for each drug and the minimum ΣFIC value (ΣFICmin) is used to determine the effect of the lysin/antibiotic combination.
The ability of CF-301 or a modified lysin polypeptide pp296 to synergize with oxacillin was assessed using a checkerboard analysis. For the checkerboard assay, a total of 50 μl of Mueller-Hinton broth is distributed into each well of microdilution plates. Then, a first antibiotic of a combination is serially diluted along the ordinate, while a second drug is diluted along the abscissa. An inoculum equal to a 0.5 McFarland turbidity standard is prepared from each bacterial isolate in Mueller-Hinton broth. Each microtiter well is then inoculated with 100 μl of a bacterial inoculum of 5×10^5 CFU/ml, and the plates are incubated at 37° C. for 18 h under aerobic conditions. The resulting checkerboard contains each combination of two antibiotics, with wells that contain the highest concentration of each antibiotic at opposite corners. […] To quantify the interactions between the antibiotics being tested, the FIC index (the combination of antibiotics that produced the greatest change from the individual antibiotic's MIC) value is calculated for each strain and antibiotic combination as follows:
(A/MICA)+(B/MICB)=FICA+FICB=FIC index,
where A and B are the MIC of each agent in combination in a single well, and MICA and MICB are the MIC of each drug when used individually. The combination is considered strongly synergistic when the FIC index is ≤0.5 and synergistic when the FIC index is >0.5-<1.

Turning to `Cc1onc(-c2ccccc2)c1C(=O)N[C@@H]1C(=O)N2[C@@H]1SC(C)(C)[C@@H]2C(=O)O` [Oxacillin, oxacillin], the MIC (ATCC 29213 / MSSA, MSSA ATCC 29213) was determined as 0.5 µg/mL; the MIC (MSSA, MSSA JMI-6625) came out at 1 µg/mL; the MIC (MSSA, MSSA JMI-6885) amounted to 1 µg/mL; the MIC (MSSA, MSSA JMI-6886) stood at 1 µg/mL; the MIC (MSSA, MSSA JMI-7054) was found to be 1 µg/mL; the MIC (MSSA, MSSA JMI-7160) is 1 µg/mL. Further, the MIC runs as follows: (MSSA, MSSA JMI-38739) 0.5 µg/mL; (MSSA, MSSA JMI-38986) 0.5 µg/mL; (MSSA, MSSA JMI-40671) 0.5 µg/mL; (MSSA, MSSA JMI-46142) 0.5 µg/mL. The FIC (MSSA ATCC 29213) is given as 0.25; the FIC (MSSA JMI-6625) turned out to be 0.25; the FIC (MSSA JMI-6885) was found to be 0.125; the FIC (MSSA JMI-6886) is 0.25; the FIC (MSSA JMI-7054) amounted to 0.25; the FIC (MSSA JMI-7160) was 0.25. In addition, the FIC was 0.25 (MSSA JMI-38739), 0.25 (MSSA JMI-38986), 0.125 (MSSA JMI-40671) and 0.25 (MSSA JMI-46142). The MIC in combination (MSSA ATCC 29213) worked out at 0.125 µg/mL; the MIC in combination (MSSA JMI-6625) amounted to 0.25 µg/mL; the MIC in combination (MSSA JMI-6885) was determined as 0.125 µg/mL; the MIC in combination (MSSA JMI-6886) was determined as 0.25 µg/mL; the MIC in combination (MSSA JMI-7054) is 0.25 µg/mL; the MIC in combination (MSSA JMI-7160) was 0.25 µg/mL. The MIC in combination reads like this: (MSSA JMI-38739) 0.125 µg/mL; (MSSA JMI-38986) 0.125 µg/mL; (MSSA JMI-40671) 0.0625 µg/mL; (MSSA JMI-46142) 0.125 µg/mL.

B1: CF-301: Lysin CF-301, comparator lysin in the oxacillin checkerboard analysis (protein)
chain: MTTVNEALNNVRAQVGSGVSVGNGECYALASWYERMISPDATVGLGAGVGWVSGAIGDTISAKNIGSSYNWQANGWTVSTSGPFKAGQIVTLGATPGNPYGHVVIVEAVDGDRLTILEQNYGGKRYPVRNYYSAASYRQQVVHYITPPGTVAQSAPNLAGSRSYRETGTMTVTVDALNVRRAPNTSGEIVAVYKRGESFDYDTVIIDVNGYVWVSYIGGSGKRNYVATGATKDGKRFGNAWGTFK
Regarding B1, the ΣFICmin runs as follows: (MSSA ATCC 29213) 0.5; (MSSA JMI-6625) 0.375; (MSSA JMI-6885) 0.5; (MSSA JMI-6886) 0.5; (MSSA JMI-7054) 0.5; (MSSA JMI-7160) 0.5. The ΣFICmin runs as follows: (MSSA JMI-38739) 0.5; (MSSA JMI-38986) 0.375; (MSSA JMI-40671) 0.3125; (MSSA JMI-46142) 0.375.
